The source made the active and inactive calls. The rule behind the calls is not given here.
System: GENE-TOX genotoxicity assays, various organisms and cells
Test: GENE-TOX mutagenicity studies
Settings: for call: Assay Type: In vivo carcinogenicity studies
[1] = Species/Cell Type: Saccharomyces cerevisiae, Assay Type: Mitotic recombination or gene conversion, Assay Code: YEH-, Evaluation Type: Evaluation A (Pre-1980)
[2] = Species/Cell Type: Salmonella typhimurium (one or more of the five standard strains: TA98, TA100, TA1535, TA1537, and TA1538), Assay Type: Histidine reverse gene mutation, Ames assay, Assay Code: SAL-, Evaluation Type: Evaluation A (Pre-1980)
[3] = Species/Cell Type: Chinese hamster lung (V79) cells, Assay Type: Forward gene mutation at the HPRT or ouabain locus, Assay Code: V79+, Evaluation Type: Evaluation A (Pre-1980)
[4] = Species/Cell Type: Salmonella typhimurium (one or more of the five standard strains: TA98, TA100, TA1535, TA1537, and TA1538), Assay Type: Histidine reverse gene mutation, Ames assay, Assay Code: SALT, Evaluation Type: Evaluation A (Pre-1980)
[5] = Species/Cell Type: Mammalian polychromatic erythrocytes, Assay Type: Micronucleus test, chromosome aberrations, Assay Code: MNTT, Evaluation Type: Evaluation A (Pre-1980)
[6] = Species/Cell Type: Nonhuman, Assay Type: Sister-chromatid exchange (SCE) in vitro, Assay Code: SC2+D, Dose Response: With dose response, Evaluation Type: Evaluation B (Post-1980)
[7] = Species/Cell Type: Nonhuman, Assay Code: CCG+, Evaluation Type: Evaluation A (Pre-1980)
[8] = Species/Cell Type: Escherichia coli WP2 UVRA, Assay Type: Tryptophan reverse gene mutation, Assay Code: WPU-*, Activation: With metabolic activation, Evaluation Type: Evaluation A (Pre-1980)
[9] = Species/Cell Type: Mammalian polychromatic erythrocytes, Assay Type: Micronucleus test, chromosome aberrations, Assay Code: MNT-, Evaluation Type: Evaluation B (Post-1980)
[10] = Species/Cell Type: Escherichia coli polA (W3119 vs P3478), Assay Type: Rec-assay, DNA effects (bacterial DNA repair), Assay Code: RE1+, Evaluation Type: Evaluation A (Pre-1980)
[11] = Species/Cell Type: Escherichia coli polA (W3119 vs P3478), Assay Type: Rec-assay, DNA effects (bacterial DNA repair), Assay Code: RE1T, Evaluation Type: Evaluation A (Pre-1980)
[12] = Species/Cell Type: Nonhuman, Assay Code: CCGT, Evaluation Type: Evaluation A (Pre-1980)
[13] = Species/Cell Type: Bacillus subtilis (H17 vs M45), Assay Type: Rec-assay, spot test, DNA effects (bacterial DNA repair), Assay Code: REWT, Evaluation Type: Evaluation A (Pre-1980)
[14] = Species/Cell Type: Chinese hamster ovary (CHO) cells, Assay Type: Forward gene mutation at the HPRT locus, Assay Code: CHOT, Evaluation Type: Evaluation B (Post-1980)
[15] = Species/Cell Type: Drosophila melanogaster, Assay Type: Sex-linked recessive lethal gene mutation, Assay Code: SRLT, Evaluation Type: Evaluation A (Pre-1980)

Clc1ccc(Br)cc1
mutagenic call [1]: inactive; negative
mutagenic call [2]: inactive; negative

CN(N=O)C(=O)N[C@@H]1O[C@H](CO)[C@H](O)[C@H](O)[C@H]1O
mutagenic call [3]: active; positive

Cc1cc2ccccc2c2cc(F)c3ccccc3c12
mutagenic call [4]: no conclusion

O=NN1CN2CN(C1)CN(N=O)C2
mutagenic call [5]: no conclusion
mutagenic call (Species/Cell Type: Mouse embryo (AKR/ME) cells, Assay Type: Cell transformation, Assay Code: CTK-, Evaluation Type: Evaluation A (Pre-1980)): inactive; negative
mutagenic call [6]: active; positive

Nc1ccc(Cc2ccc(N)cc2)cc1
call [7]: active; positive
mutagenic call (Species/Cell Type: Nonhuman, Assay Type: Sister-chromatid exchange (SCE) in vivo, Assay Code: SC3+, Evaluation Type: Evaluation B (Post-1980)): active; positive

O=S(O)O
mutagenic call [8]: inactive; negative
mutagenic call (Species/Cell Type: Mouse, Sex: Male, Assay Type: Heritable translocation test, chromosome aberrations, Assay Code: HTT-, Evaluation Type: Evaluation A (Pre-1980)): inactive; negative
mutagenic call (Species/Cell Type: Mouse, Sex: Male, Assay Type: Specific locus test, gene mutation, Assay Code: SLT-, Evaluation Type: Evaluation A (Pre-1980)): inactive; negative
mutagenic call [6]: active; positive
mutagenic call (Species/Cell Type: Rodents, Sex: Male, Assay Type: Dominant lethal test, Assay Code: DLT-, Evaluation Type: Evaluation A (Pre-1980)): inactive; negative
mutagenic call (Species/Cell Type: Saccharomyces cerevisiae, Assay Type: Reverse gene mutation, Assay Code: YER+, Evaluation Type: Evaluation A (Pre-1980)): active; positive

C[C@@H]1O[C@@H](OC[C@H]2O[C@@H](Oc3c(-c4ccc(OCCO)c(OCCO)c4)oc4cc(OCCO)cc(O)c4c3=O)[C@H](O)[C@@H](O)[C@@H]2O)[C@H](O)[C@H](O)[C@H]1O
mutagenic call [9]: inactive; negative

CN(CCCC(=O)c1cccnc1)N=O
mutagenic call (Species/Cell Type: Rat primary hepatocytes, Assay Type: Unscheduled DNA synthesis (UDS) in vitro, DNA effects, Assay Code: UDP+D, Dose Response: With dose response, Evaluation Type: Evaluation A (Pre-1980)): active; positive

N#CS
mutagenic call (Species/Cell Type: Glycine max (soybean), Assay Type: Gene mutation, Assay Code: GLM-, Evaluation Type: Evaluation A (Pre-1980)): inactive; negative
mutagenic call [4]: no conclusion

CCCCOc1ccc(CC(=O)NN)cc1CN(CC)CC
mutagenic call (Species/Cell Type: Saccharomyces cerevisiae, Assay Type: Reverse gene mutation, Assay Code: YERT, Evaluation Type: Evaluation A (Pre-1980)): no conclusion

CCCCCN(C)N=O
mutagenic call [10]: active; positive

Nc1ccccc1-c1ccccc1
mutagenic call (Species/Cell Type: Escherichia coli polA (W3110 vs P3478), Assay Type: Rec-assay, DNA effects (bacterial DNA repair), Assay Code: RE2-, Evaluation Type: Evaluation A (Pre-1980)): inactive; negative
mutagenic call [11]: no conclusion
mutagenic call (Species/Cell Type: Fischer rat embryo (RLV/1706) cells, Assay Type: Cell transformation, viral enhanced, Assay Code: CTR-, Evaluation Type: Evaluation A (Pre-1980)): inactive; negative
mutagenic call (Species/Cell Type: Mouse embryo (AKR/ME) cells, Assay Type: Cell transformation, Assay Code: CTK+, Evaluation Type: Evaluation A (Pre-1980)): active; positive
call [12]: no conclusion
mutagenic call (Species/Cell Type: Nonhuman, Assay Type: Sister-chromatid exchange (SCE) in vivo, Assay Code: SC3T, Evaluation Type: Evaluation B (Post-1980)): no conclusion
mutagenic call (Species/Cell Type: Rat primary hepatocytes, Assay Type: Unscheduled DNA synthesis (UDS) in vitro, DNA effects, Assay Code: UDP-, Evaluation Type: Evaluation A (Pre-1980)): inactive; negative
mutagenic call [1]: inactive; negative
mutagenic call (Species/Cell Type: Salmonella typhimurium (one or more of the five standard strains: TA98, TA100, TA1535, TA1537, and TA1538), Assay Type: Histidine reverse gene mutation, Ames assay, Assay Code: SAL+*, Activation: With metabolic activation, Evaluation Type: Evaluation A (Pre-1980)): active; positive
mutagenic call (Species/Cell Type: Salmonella typhimurium, Assay Type: Forward and reverse gene mutation, body fluid assay, Assay Code: BFU-, Evaluation Type: Evaluation A (Pre-1980)): inactive; negative
mutagenic call (Species/Cell Type: Salmonella typhimurium, Assay Type: Forward and reverse gene mutation, host-mediated assay, Assay Code: HMA-, Evaluation Type: Evaluation A (Pre-1980)): inactive; negative
mutagenic call (Species/Cell Type: Syrian hamster embryo (SHE) cells, Assay Type: Cell transformation, clonal assay, Assay Code: CTC-, Evaluation Type: Evaluation A (Pre-1980)): inactive; negative

CCN(C)N=O
call [7]: active; positive
mutagenic call [4]: no conclusion

COP(=O)(OC)O/C(C)=C/C(=O)OC(C)c1ccccc1 (stereo not given)
mutagenic call [13]: no conclusion
mutagenic call [8]: inactive; negative
mutagenic call [11]: no conclusion
mutagenic call (Species/Cell Type: Human diploid fibroblasts, Assay Type: Unscheduled DNA synthesis (UDS) in vitro, DNA effects, Assay Code: UDH-, Evaluation Type: Evaluation A (Pre-1980)): inactive; negative
mutagenic call (Species/Cell Type: Saccharomyces cerevisiae, Assay Type: Mitotic recombination or gene conversion, Assay Code: YEH+, Evaluation Type: Evaluation A (Pre-1980)): active; positive
mutagenic call [2]: inactive; negative

BrCCCCCBr
mutagenic call [10]: active; positive

CCN(CCO)CCCNc1c2ccc(Cl)cc2nc2ccc(OC)cc12
mutagenic call (Species/Cell Type: Chinese hamster ovary (CHO) cells, Assay Type: Forward gene mutation at the HPRT locus, Assay Code: CHO-, Evaluation Type: Evaluation A (Pre-1980)): inactive; negative
mutagenic call [14]: no conclusion

CCCCC(CC)COC(=O)c1ccccc1C(=O)O (stereo not given)
mutagenic call [14]: no conclusion
mutagenic call (Species/Cell Type: Nonhuman, Assay Type: Sister-chromatid exchange (SCE) in vitro, Assay Code: SC2-, Evaluation Type: Evaluation B (Post-1980)): inactive; negative

OC(O)C(Cl)(Cl)Cl
mutagenic call (Species/Cell Type: Aspergillus nidulans, Assay Type: Aneuploidy, chromosome aberrations, Assay Code: ASN+, Evaluation Type: Evaluation A (Pre-1980)): active; positive
mutagenic call (Species/Cell Type: Aspergillus nidulans, Assay Type: Mitotic recombination, Assay Code: ASG-, Evaluation Type: Evaluation A (Pre-1980)): inactive; negative
mutagenic call [5]: no conclusion
mutagenic call (Species/Cell Type: Mouse, Sex: Male, Assay Type: Sperm morphology, Assay Code: SPI-, Evaluation Type: Evaluation A (Pre-1980)): inactive; negative
mutagenic call (Species/Cell Type: Neurospora crassa, Assay Type: Aneuploidy, chromosome aberrations, Assay Code: NEN-, Evaluation Type: Evaluation A (Pre-1980)): inactive; negative
call [12]: no conclusion
mutagenic call (Species/Cell Type: Salmonella typhimurium (one or more of the five standard strains: TA98, TA100, TA1535, TA1537, and TA1538), Assay Type: Histidine reverse gene mutation, Ames assay, Assay Code: SAL+, Evaluation Type: Evaluation A (Pre-1980)): active; positive

ClC1=CC(c2cc(Cl)ccc2Cl)=C(Cl)[C@H]2O[C@@H]12
mutagenic call [4]: no conclusion

N[C@H](Cc1ccc(N(CCCl)CCCl)cc1)C(=O)O
mutagenic call (Species/Cell Type: Drosophila melanogaster, Assay Type: Sex-linked recessive lethal gene mutation, Assay Code: SRL+, Evaluation Type: Evaluation A (Pre-1980)): active; positive

CC(CN(CC(=O)O)CC(=O)O)N(CC(=O)O)CC(=O)O (stereo not given)
mutagenic call [3]: active; positive

CCCC(=O)C1c2cccc(O)c2C(=O)c2c(O)cccc21
mutagenic call [9]: inactive; negative

CC(O)c1ccccc1 (stereo not given)
mutagenic call [11]: no conclusion

Nc1nc2nc[nH]c2c(=O)[nH]1
mutagenic call [15]: no conclusion
mutagenic call [11]: no conclusion

O=C(O)C1CCCCN1[N+](=O)[O-] (stereo not given)
mutagenic call [4]: no conclusion

Clc1nc(Cl)nc(Nc2ccccc2Cl)n1
mutagenic call (Species/Cell Type: Fischer rat embryo (RLV/1706) cells, Assay Type: Cell transformation, viral enhanced, Assay Code: CTR+, Evaluation Type: Evaluation A (Pre-1980)): active; positive
call (Species/Cell Type: Nonhuman, Assay Code: CCG-, Evaluation Type: Evaluation A (Pre-1980)): inactive; negative

O=C1c2ccccc2C(=O)c2c1ccc(O)c2O
mutagenic call (Species/Cell Type: Allium cepa, Assay Type: Chromosome aberrations, Assay Code: ALC+, Evaluation Type: Evaluation A (Pre-1980)): active; positive
mutagenic call [13]: no conclusion

COc1cc2c(c3oc(=O)c4c(c13)CCOC4=O)C1C=COC1O2 (stereo not given)
mutagenic call (Species/Cell Type: Aspergillus nidulans, Assay Type: Forward gene mutation, Assay Code: ASF+*, Activation: With metabolic activation, Evaluation Type: Evaluation A (Pre-1980)): active; positive
mutagenic call [15]: no conclusion
mutagenic call (Species/Cell Type: Drosophila melanogaster, Sex: Male, Assay Type: Heritable translocation test, chromosome aberrations, Assay Code: DHTT, Evaluation Type: Evaluation A (Pre-1980)): no conclusion
mutagenic call (Species/Cell Type: Human lymphocytes or leukocytes, Assay Type: Chromosome aberrations in vitro, Assay Code: CY7T, Evaluation Type: Evaluation A (Pre-1980)): no conclusion
mutagenic call (Species/Cell Type: Vicia faba, Assay Type: Chromosome aberrations, Assay Code: VIC+, Evaluation Type: Evaluation A (Pre-1980)): active; positive

Source: PubChem BioAssay AID1259408 (Genetic Toxicology Data Bank (GENE-TOX), 2018)
